Measured values: ChEMBL document CHEMBL4477208, “Discovery and Rational Design of Pteridin-7(8H)-one-Based Inhibitors Targeting FMS-like Tyrosine Kinase 3 (FLT3) and Its Mutants” (J Med Chem, 2016)
Calls of active or inactive are those of the source. The calls are words filed in the database; no cut-off is given here.

What was measured:
[1] = target: T1, Receptor-type tyrosine-protein kinase FLT3 (Homo sapiens, UniProt P36888)
T1 sequence (P36888 whole entry): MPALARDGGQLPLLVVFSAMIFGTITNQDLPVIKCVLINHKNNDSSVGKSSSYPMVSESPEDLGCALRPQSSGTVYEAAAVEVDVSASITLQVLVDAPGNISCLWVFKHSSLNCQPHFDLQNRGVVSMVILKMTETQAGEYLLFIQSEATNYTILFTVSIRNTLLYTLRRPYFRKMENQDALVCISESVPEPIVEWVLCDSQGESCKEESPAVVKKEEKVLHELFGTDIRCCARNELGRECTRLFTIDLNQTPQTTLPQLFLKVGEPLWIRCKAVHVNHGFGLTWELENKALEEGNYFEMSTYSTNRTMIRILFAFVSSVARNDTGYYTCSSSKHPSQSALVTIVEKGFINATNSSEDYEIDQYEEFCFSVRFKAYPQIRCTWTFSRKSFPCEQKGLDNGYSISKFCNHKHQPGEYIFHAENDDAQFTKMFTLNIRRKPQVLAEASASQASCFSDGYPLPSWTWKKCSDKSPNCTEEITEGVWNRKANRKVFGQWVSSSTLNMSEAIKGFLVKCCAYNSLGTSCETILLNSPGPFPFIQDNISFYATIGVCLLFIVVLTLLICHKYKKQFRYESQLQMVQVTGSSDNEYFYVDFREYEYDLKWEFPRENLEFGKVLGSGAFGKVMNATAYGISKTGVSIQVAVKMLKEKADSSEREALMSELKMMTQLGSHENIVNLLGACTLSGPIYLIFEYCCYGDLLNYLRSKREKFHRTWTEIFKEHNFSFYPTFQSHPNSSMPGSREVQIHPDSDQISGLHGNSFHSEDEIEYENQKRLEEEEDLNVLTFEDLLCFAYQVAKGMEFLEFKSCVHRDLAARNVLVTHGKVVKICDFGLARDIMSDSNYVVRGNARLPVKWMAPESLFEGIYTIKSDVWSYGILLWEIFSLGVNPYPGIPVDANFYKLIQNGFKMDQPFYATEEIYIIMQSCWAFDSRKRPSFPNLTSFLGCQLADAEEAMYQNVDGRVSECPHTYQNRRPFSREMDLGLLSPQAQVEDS
Description: Inhibition of human N-terminal GST-tagged FLT3 (564 to 993 residues) expressed in baculovirus expression system using peptide FAM-P2 as substrate incubated for 10 mins followed by substrate addition by mobility shift assay

[2] = test system: MV4-11; assay: cells; settings: Homo sapiens, MV4-11, 72 h
Description: Antiproliferative activity against human MV4-11 cells harboring FLT3-ITD mutant after 72 hrs by MTT assay

[3] = test system: K562; assay: cells; settings: Homo sapiens, K562, 72 h
Description: Antiproliferative activity against FLT3-deficient human K562 cells after 72 hrs by MTT assay

[4] = test system: WI-38; assay: cells; settings: Homo sapiens, WI-38, 72 h
Description: Antiproliferative activity against human WI38 cells after 72 hrs by SRB assay

[5] = target: Receptor-type tyrosine-protein kinase FLT3 (Homo sapiens) (UniProt P36888); assay: Inhibition of FLT3 (unknown origin) at 10 uM
[6] = target: Receptor-type tyrosine-protein kinase FLT3 (Homo sapiens) (UniProt P36888); assay: Inhibition of FLT3 (unknown origin) at 1 uM
[7] = test system: MV4-11; assay: Induction of apoptosis in human MV4-11 cells at 1000 nM after 48 hrs by annexin V/propidium iodide staining based FACS analysis; assay type: functional, cell-based
[8] = test system: MV4-11; assay: Cell cycle arrest in human MV4-11 cells at 1000 nM after 48 hrs by PI/RNase staining based FACS analysis; assay type: functional

SMILES | IC50 [1] [µM] | IC50 [2] [µM] | IC50 [3] [µM] | IC50 [4] [µM] | inhibition [5] [%] | inhibition [6] [%] | Activity [7] | Activity [8]
C=CC(=O)Nc1cccc(-n2c(=O)cnc3cnc(Nc4ccc(N5CCOCC5)cc4)nc32)c1 | 1.14 | > 10 | > 10 | > 10 | – | – | – | –
C=CC(=O)Nc1cccc(-n2c(=O)cnc3cnc(Nc4ccc(N5CCCC5)cc4)nc32)c1 | 1.53 | > 10 | > 10 | > 10 | – | – | – | –
C=CC(=O)Nc1cccc(-n2c(=O)cnc3cnc(Nc4ccc(NC(C)=O)cc4)nc32)c1 | 5.45 | 7.38 | > 10 | > 10 | – | – | – | –
C=CC(=O)Nc1cccc(-n2c(=O)cnc3cnc(Nc4ccc(CC(N)=O)cc4)nc32)c1 | – | > 10 | > 10 | > 10 | – | – | – | –
COc1cc(Nc2ncc3ncc(=O)n(-c4ccc(N)cc4)c3n2)ccc1N1CCN(C)CC1 | – | 0.093 | > 10 | > 10 | – | – | – | –
CN1CCN(c2ccc(Nc3ncc4ncc(=O)n(-c5ccc(N)cc5)c4n3)cc2F)CC1 | – | 1.42 | > 10 | > 10 | – | – | – | –
C=CC(=O)Nc1cccc(-n2c(=O)cnc3cnc(Nc4ccc(OC)cc4)nc32)c1 | 1.87 | 2.61 | > 10 | 8.71 | – | – | – | –
C=CC(=O)Nc1ccc(-n2c(=O)cnc3cnc(Nc4ccc(N5CCN(C)CC5)cc4OC)nc32)cc1 | 0.153 | 0.814 | > 10 | > 10 | – | – | – | –
C=CC(=O)Nc1ccc(-n2c(=O)cnc3cnc(Nc4ccc(Cl)cc4)nc32)cc1 | 0.384 | > 10 | > 10 | > 10 | – | – | – | –
C=CC(=O)Nc1cccc(-n2c(=O)cnc3cnc(Nc4ccc(N5CCN(C)CC5)cc4)nc32)c1 | 0.312 | 0.792 | > 10 | > 10 | 99 | 82 | – | –
CN1CCN(c2ccc(Nc3ncc4ncc(=O)n(-c5ccc(N)cc5)c4n3)cc2)CC1 | – | 0.297 | > 10 | > 10 | – | – | Active | Active
C=CC(=O)Nc1cccc(-n2c(=O)cnc3cnc(Nc4ccc(N5CCCCC5)cc4)nc32)c1 | 1.75 | > 10 | > 10 | > 10 | – | – | – | –
CC(=O)Nc1ccc(-n2c(=O)cnc3cnc(Nc4ccc(N5CCN(C)CC5)cc4)nc32)cc1 | – | 0.415 | > 10 | > 10 | – | – | – | –
COc1cc2c(N3CCN(C(=O)Nc4ccc(OC(C)C)cc4)CC3)ncnc2cc1OCCCN1CCCCC1 [TANDUTINIB] | – | 0.302 | > 10 | > 10 | – | – | – | –
CN1CCN(c2ccc(Nc3ncc4ncc(=O)n(-c5ccc(N)cc5)c4n3)cc2Cl)CC1 | – | 0.098 | > 10 | 3.49 | – | – | – | –
COc1ccc(Nc2ncc3ncc(=O)n(-c4ccc(N)cc4)c3n2)c(C)c1 | – | 6.04 | > 10 | > 10 | – | – | – | –
CN1CCN(c2ccc(Nc3ncc4ncc(=O)n(-c5ccc(CN)cc5)c4n3)cc2)CC1 | – | 0.326 | 9.96 | > 10 | – | – | – | –
C=CC(=O)Nc1ccc(-n2c(=O)cnc3cnc(Nc4ccc(OC)cc4)nc32)cc1 | 0.108 | 3.81 | > 10 | > 10 | – | – | – | –

SMILES | IC50 [1] [µM] | IC50 [2] [µM] | IC50 [3] [µM] | IC50 [4] [µM] | inhibition [5] [%] | inhibition [6] [%] | Activity [7] | Activity [8]
C=CC(=O)Nc1ccc(-n2c(=O)cnc3cnc(Nc4ccc(N5CCN(C)CC5)cc4)nc32)cc1 | 0.047 | 0.835 | > 10 | > 10 | – | – | – | –
COc1ccc(Nc2ncc3ncc(=O)n(-c4ccc(N)cc4)c3n2)cc1Cl | – | 1.95 | > 10 | > 10 | – | – | – | –
CN1CCN(c2ccc(Nc3ncc4ncc(=O)n(-c5cccc(N)c5)c4n3)cc2)CC1 | – | 0.383 | > 10 | > 10 | – | – | – | –
COc1ccc(Nc2ncc3ncc(=O)n(-c4cccc(NC(=O)/C=C/CN(C)C)c4)c3n2)cc1 | – | 2.72 | > 10 | > 10 | – | – | – | –
C=CC(=O)Nc1cccc(-n2c(=O)cnc3cnc(Nc4ccc(N(CC)CC)cc4)nc32)c1 | 1.06 | 5.56 | > 10 | > 10 | – | – | – | –
COc1ccc(Nc2ncc3ncc(=O)n(-c4ccc(NC(C)=O)cc4)c3n2)cc1 | – | 3.88 | > 10 | > 10 | – | – | – | –
CN1CCN(c2ccc(Nc3ncc4ncc(=O)n(-c5ccc(NS(C)(=O)=O)cc5)c4n3)cc2)CC1 | – | 1.15 | > 10 | > 10 | – | – | – | –
C=CC(=O)Nc1cccc(-n2c(=O)cnc3cnc(Nc4ccccc4)nc32)c1 | 2.92 | 5.51 | > 10 | > 10 | – | – | – | –
COc1ccc(Nc2ncc3ncc(=O)n(-c4ccc(N)cc4)c3n2)cc1 | 0.029 | 6.89 | > 10 | > 10 | – | – | – | –
CN1CCN(c2ccc(Nc3ncc4ncc(=O)n(-c5ccc(N6CCNCC6)cc5)c4n3)cc2)CC1 | – | 0.168 | > 10 | > 10 | – | – | – | –
C=CC(=O)Nc1cccc(-n2c(=O)cnc3cnc(Nc4ccc(Cl)cc4)nc32)c1 | 3.59 | 4.04 | > 10 | > 10 | – | – | – | –
C=CC(=O)Nc1ccc(-n2c(=O)cnc3cnc(Nc4ccccc4)nc32)cc1 | 0.165 | > 10 | > 10 | > 10 | – | – | – | –
COc1ccc(Nc2ncc3ncc(=O)n(-c4cccc(N)c4)c3n2)cc1 | 0.034 | 3.49 | > 10 | > 10 | – | – | – | –
C=CC(=O)Nc1ccc(-n2c(=O)cnc3cnc(Nc4ccc(N5CCOCC5)cc4)nc32)cc1 | 0.173 | 3.49 | > 10 | > 10 | – | – | – | –
COc1ccc(Nc2ncc3ncc(=O)n(-c4ccc(NC(=O)/C=C/CN(C)C)cc4)c3n2)cc1 | 0.184 | 2.17 | > 10 | > 10 | – | – | – | –
COc1ccc(Nc2ncc3ncc(=O)n(-c4ccc(NS(C)(=O)=O)cc4)c3n2)cc1 | – | 2.94 | > 10 | > 10 | – | – | – | –
C=CC(=O)Nc1cccc(-n2c(=O)cnc3cnc(Nc4ccc(N5CCN(C)CC5)cc4OC)nc32)c1 | 1.32 | 2.89 | > 10 | 8.24 | – | – | – | –
